# In paper PMC7529758, “Over-activation of a nonessential bacterial protease DegP as an antibiotic strategy” (Communications Biology, 2020):
# *1 amine or outer side, *2 acyl side, *3 side chain or, on linkers, in order; H or OH if unused. Where a SMILES comes first, the peptide text is derived from it. Bridges are numbered along the chain shown (N, C = ends). Roman numbers before positions name the chains, in order. TBMB = c1c(C[*:1])cc(C[*:3])cc1C[*:2]
# Legend:
# [1] = test system: DegP^WT; assay: DegP activation assay with the reporter peptide; assay type: biochemical, Escherichia coli; settings: reporter 100 μM
# Procedure: DegP activation experiments were performed as previously described[14],[22]. All the in vitro assays were performed in a buffer containing 50 mM sodium phosphate (pH 8) and 100 mM NaCl. Two-fold serial dilutions of the activator were incubated with DegP^WT (1, 3, or 10 μM) for 5 min. After incubation, the reporter peptide (Abz-[…]^NO2D; Abz, 2-aminobenzoic acid; Y^NO2, 3-nitrotyrosine; 100 μM final) was added. DegP activation was monitored by increased fluorescence by using a micro-plate reader (excitation 320 nm, emission 430 nm; Infinite F200pro, Tecan). Assays were performed in triplicates.
# [2] = test system: E.coli imp4213 strain; assay type: cell-based, Escherichia coli; settings: log-phase cells; 2x MIC; both 30 °C and 42 °C; CFU
# Procedure: Time-kill experiment was performed by counting the viable bacteria at each time point. The E.coli imp4213 strain was cultured with streptomycin overnight and diluted 1:100 in fresh LB broth. When the OD600 value became 0.01, the activator was added at 2x MIC. The sample was incubated with shaking (180 rpm) at 30 °C or 42 °C, and aliquots were taken after 0, 1, 2, 4, 6, 8, 10, or 12 h. These aliquots were serially diluted (ten-fold) and plated on LB agar plates for colony counts. Experiments were performed in triplicates. The kill curves were plotted with the CFU/mL against time.
# Experiments with cells in the stationary phase, however, were performed without dilution of the overnight culture.
# [3] = biological target: T1, DegP^S210A (Escherichia coli, UniProt P0C0V0, C83S/C95S/N322C/S236A); assay: FRET assay of DegP cage assembly; assay type: biochemical; settings: FRET of donor- and acceptor-labeled DegP variants
# T1 construct: pET22b-degP(full length; C57S/C69S/N296C/S210A)_6His; 6His (C); made in house; host or cells: E. coli (inferred from the pET plasmid)
# T1 sequence (P0C0V0 27-474 C83S/C95S/S236A/N322C): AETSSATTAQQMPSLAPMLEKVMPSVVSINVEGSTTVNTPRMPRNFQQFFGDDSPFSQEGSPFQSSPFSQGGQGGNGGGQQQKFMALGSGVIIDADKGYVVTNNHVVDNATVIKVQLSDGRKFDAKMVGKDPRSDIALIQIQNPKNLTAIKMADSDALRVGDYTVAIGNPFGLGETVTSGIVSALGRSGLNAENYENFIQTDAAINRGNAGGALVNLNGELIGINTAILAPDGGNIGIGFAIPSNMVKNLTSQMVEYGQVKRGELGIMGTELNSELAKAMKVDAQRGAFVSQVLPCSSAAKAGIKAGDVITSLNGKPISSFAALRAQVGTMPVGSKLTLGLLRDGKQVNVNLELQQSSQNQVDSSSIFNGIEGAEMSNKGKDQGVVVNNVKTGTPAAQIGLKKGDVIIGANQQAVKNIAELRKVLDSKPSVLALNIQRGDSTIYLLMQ
# Procedure: Fluorescence resonance energy transfer (FRET) assay was performed as previously described[14],[22]. Equimolar amounts of fluorescence donor- and acceptor-labeled DegP^S210A (total 0.1, 1 or 3 μM) was mixed in a buffer containing 50 mM sodium phosphate (pH 8) and 100 mM NaCl. Two-fold serial dilutions of activators were added to the DegP mixtures. Alexa Fluor 555 C2-maleinide and 647 C2-maleinide (life technologies) were used as fluorescence dyes. Cage assembly of DegP was monitored by increased FRET ratio using the micro-plate reader (excitation 520 nm, emission 570 or 670 nm, Infinite M200pro, Tecan). Assays were performed in triplicates.
# [4] = test system: E. coli imp4213; assay: microbe, parasite or virus in culture; assay type: cell-based, Escherichia coli; settings: imp4213, 12 h, LB
# Procedure: (§1) The susceptibility of E. coli to activators was analyzed by determining the MICs. Two-fold serial dilutions of activators in LB broth were added to bacteria (OD600 = 0.1) in 96-well plates. Plates were incubated with shaking at 30 or 42 °C. After 12 h of incubation, the MIC was defined as the lowest concentration of the activator to inhibit the growth of bacteria by using a micro-plate reader (Absorbance 600 nm, Infinite M200pro, Tecan). The assay was performed in triplicates.
# [5] = biological target: T2, DegP^S210A (Escherichia coli, UniProt P0C0V0, S236A); assay: Fluorescence anisotropy binding assay
# T2 construct: pET22b-degP(full length; S210A)_6His; 6His (C); made in house
# T2 sequence (P0C0V0 27-474 S236A): as the sequence (P0C0V0 27-474 C83S/C95S/S236A/N322C) above, with S57C, S69C, C296N counted along it
# Procedure: Fluorescence anisotropy assay was performed as previously described[14],[22]. Two-fold serial dilutions of activators were mixed with a fluorescence-labeled peptide (^flC18–58 or ^fl45–58, 50 nM; Oregon Green 488 maleimide, Invitrogen) and DegP^S210A (10 μM for ^flC18–58; 80 μM for ^fl45–58). Anisotropy was monitored by using a micro-plate reader (excitation 485 nm, emission 535 nm, Infinite F200pro, Tecan). The assay was performed in triplicates.
# [6] = test system: wild-type Escherichia coli (W3110); assay: Growth (OD600) of wild-type cells; assay type: cell-based; settings: LB; OD600 after 12 h; 42 °C
# Procedure: as §1
smiles,measurement,setting,value
CC(C)C[C@H](NC(=O)[C@H](CCCCN)NC(=O)[C@H](CCCNC(=N)N)NC(=O)[C@H](Cc1ccc(O)cc1)NC(=O)[C@@H](N)CSCc1cc(CSC[C@H](N)C(=O)N[C@@H](Cc2ccc(O)cc2)C(=O)N[C@@H](CCCNC(=N)N)C(=O)N[C@@H](CCCCN)C(=O)N[C@@H](CC(C)C)C(=O)O)cc(CSC[C@H](N)C(=O)N[C@@H](Cc2ccc(O)cc2)C(=O)N[C@@H](CCCNC(=N)N)C(=O)N[C@@H](CCCCN)C(=O)N[C@@H](CC(C)C)C(=O)O)c1)C(=O)O [TMB_CYRKL] (I: H-CYRKL-OH / II: H-CYRKL-OH / III: H-CYRKL-OH; linker I:1-II:1-III:1 via TBMB),increase of the cleavage rate compared with Lpp^+Leu and TMB_CKYRKL,[1],at least ten times more
same,activation of DegP (cleavage rate of the reporter peptide),"[1]; DegP 1 or 10 μM, increasing concentrations",activation was observed
same,reduction of the number of viable cells,[2],two orders of magnitude
same,assembly of DegP cages,[3],assemble DegP cages
same,MIC,[4]; 30 °C,320 µM
same,MIC,[4]; Fig. 3a and Supplementary Fig. 6b (30 °C and 42 °C),320 to 640 µM
same,concentrations that enhance binding of fl18-58,[5]; DegPS210A 10 μM,5~ 40 µM
same,concentrations that interrupt the interaction of fl18-58,[5]; DegPS210A 10 μM,> 40 µM
same,concentrations that enhance binding of fl45-58,[5]; DegPS210A 80 μM,10~ 80 µM
same,concentrations that interrupt the interaction of fl45-58,[5]; DegPS210A 80 μM,> 80 µM
same,growth of wild-type E. coli W3110,[6],did not inhibit growth
